One assay deals with P-P70S6K (T389). The experiment in a line: Cell based AlphaLISA assay, inhibition of P-P70S6K (T389) in MDA-MB-468 cells (mTORC1 substrate). Particulars: AlphaLisa, two to four hours at 37° C.; for IC50: Homo sapiens, 4 h, read-out: pIC50 for Inhibition of mTORC1 and mTORC2 Substrate Phosphorylation p-P70S6K-(T389) (converted). How it is done: (§1) Cell Based AlphaLISA Assays For Determining IC50 For Inhibition of P-Akt (S473), P-4E-BP1(T37/46), and P-P70S6K (T389) in MDA-MB-468 Cells
(§2) mTOR Kinase Cellular Assay
(§3) To measure functional activity of mTORC1 and mTORC2 in cells the phosphorylation of 4EBPT (Thr37/46) and P70S6K (Thr389), and AKT1/2/3 (Ser473) was monitored using AlphaLisa SureFire Ultra Kits (Perkin Elmer). […] Incubations were terminated by removal of the assay buffer and addition of lysis buffer provided with the assay kit. Samples were processed according to the manufacturer's instructions. The Alpha signal from the respective phosphoproteinswas measured in duplicate using a microplate reader (Envision, Perkin-Elmer or Spectramax M5, Molecular Devices). Inhibitor concentration response curves were analyzed using normalized IC50 regression curve filling with control based normalization.
On the technique in general: In Alpha technology, singlet oxygen from a donor bead excites a nearby acceptor bead.

Another assay has as its system P-Akt (S473). The experiment in a line: Cell based AlphaLISA assay, inhibition of P-Akt (S473) in MDA-MB-468 cells (mTORC2 substrate). The note with it: AlphaLisa, two to four hours at 37° C.; for IC50: Homo sapiens, 4 h, read-out: pIC50 for Inhibition of mTORC1 and mTORC2 Substrate Phosphorylation p-AKT1/2/3-(S473) (converted). As for the experimental part: as §1, §2, §3

Another assay deals with P-4E-BP1 (T37/46). The experiment in a line: Cell based AlphaLISA assay, inhibition of P-4E-BP1 (T37/46) in MDA-MB-468 cells (mTORC1 substrate). Particulars: AlphaLisa, two to four hours at 37° C.; for IC50: Homo sapiens, 4 h, read-out: pIC50 for Inhibition of mTORC1 and mTORC2 Substrate Phosphorylation P-4E-BP1-(T37/46) (converted). As for the experimental part: as §1, §2, §3

Experimental findings from patent publication US10980889B1 (Revolution Medicines, Inc., priority 2018, dated 2021) are described below.

SMILES strings stand for the structures. Where only a bound is given, the exact number is not on record here.

Turning to `CO[C@H]1C[C@@H]2CC[C@@H](C)[C@@](O)(O2)C(=O)C(=O)N2CCCC[C@H]2C(=O)O[C@H]([C@H](C)C[C@@H]2CC[C@@H](OC(=O)NCc3cnc(N4CCN(CCOCCOCCOCCOCCC(=O)N5CCc6cc(Cn7nc(-c8ccc9oc(N)nc9c8)c8c(N)ncnc87)ccc6C5)CC4)nc3)[C@H](OC)C2)CC(=O)[C@H](C)/C=C(\C)[C@@H](O)[C@@H](OC)C(=O)[C@H](C)C[C@H](C)/C=C/C=C/C=C/1C` [Example 88], the IC50 in the assay on P-P70S6K (T389) was less than 1 nM; with P-Akt (S473), 3.16 to 31.6 nM; with P-4E-BP1 (T37/46), less than 3.16 nM.

`CO[C@H]1C[C@@H]2CC[C@@H](C)[C@@](O)(O2)C(=O)C(=O)N2CCCC[C@H]2C(=O)O[C@H]([C@H](C)C[C@@H]2CC[C@@H](OC(=S)NCc3cnc(N4CCN(C(=O)CCOCCN5CCN(c6ncc(C(=O)N7CCc8cc(Cn9nc(-c%10ccc%11oc(N)nc%11c%10)c%10c(N)ncnc%109)ccc8C7)cn6)CC5)CC4)nc3)[C@H](OC)C2)CC(=O)[C@H](C)/C=C(\C)[C@@H](O)[C@@H](OC)C(=O)[C@H](C)C[C@H](C)/C=C/C=C/C=C/1C` [Example 119]: the figures for the IC50 with P-P70S6K (T389), in the assay with P-Akt (S473) and with P-4E-BP1 (T37/46) were less than 1 nM, 3.16 to 31.6 nM and less than 3.16 nM, respectively.

Consider `CO[C@H]1C[C@@H]2CC[C@@H](C)[C@@](O)(O2)C(=O)C(=O)N2CCCC[C@H]2C(=O)O[C@H]([C@H](C)C[C@@H]2CC[C@@H](OC(=S)NCCOCCOCCOCCOCCOCCOCCOCCOCCC(=O)NCc3ccc(Cn4nc(-c5ccc6oc(N)nc6c5)c5c(N)ncnc54)cc3)[C@H](OC)C2)C[C@@H](O)[C@H](C)/C=C(\C)[C@@H](O)[C@@H](OC)C(=O)[C@H](C)C[C@H](C)/C=C/C=C/C=C/1C` [Example 39], for which the IC50 in the assay on P-P70S6K (T389) was less than 1 nM; with P-Akt (S473) it was less than 3.16 nM; in the assay on P-4E-BP1 (T37/46) it was less than 3.16 nM.

Consider `CO[C@H]1C[C@@H]2CC[C@@H](C)[C@@](O)(O2)C(=O)C(=O)N2CCCC[C@H]2C(=O)O[C@H]([C@H](C)C[C@@H]2CC[C@@H](OC(=O)N3CCc4nc(N5CCN(c6ncc(C(=O)N7CCN(c8ncc(C(=O)N9CCc%10cc(Cn%11nc(-c%12cnc%13[nH]ccc%13c%12)c%12c(N)ncnc%12%11)ccc%10C9)cn8)CC7)cn6)CC5)ncc4C3)[C@H](OC)C2)CC(=O)[C@H](C)/C=C(\C)[C@@H](O)[C@@H](OC)C(=O)[C@H](C)C[C@H](C)/C=C/C=C/C=C/1C` [Example 142], for which the IC50 in the assay on P-P70S6K (T389) was 1 to 10 nM; with P-Akt (S473), more than 1000 nM; with P-4E-BP1 (T37/46), more than 1000 nM.

As to `CO[C@H]1C[C@@H]2CC[C@@H](C)[C@@](O)(O2)C(=O)C(=O)N2CCCC[C@H]2C(=O)O[C@H]([C@H](C)C[C@@H]2CC[C@@H](OC(=O)NCc3cnc(N4CCN(C(=O)CCOCCN5CCN(C(=O)CCC(=O)N6CCc7cc(Cn8nc(-c9ccc%10oc(N)nc%10c9)c9c(N)ncnc98)ccc7C6)CC5)CC4)nc3)[C@H](OC)C2)C[C@@H](O)[C@H](C)/C=C(\C)[C@@H](O)[C@@H](OC)C(=O)[C@H](C)C[C@H](C)/C=C/C=C/C=C/1C` [Example 132], the IC50 is less than 1 nM in the assay on P-P70S6K (T389), 3.16 to 31.6 nM with P-Akt (S473) and less than 3.16 nM with P-4E-BP1 (T37/46).

As for `CO[C@H]1C[C@@H]2CC[C@@H](C)[C@@](O)(O2)C(=O)C(=O)N2CCCC[C@H]2C(=O)O[C@H]([C@H](C)C[C@@H]2CC[C@@H](OC(=O)NCc3cnc(N4CCN(CCOCCOCCOCCOCCC(=O)NCCCCn5nc(-c6ccc7oc(N)nc7c6)c6c(N)ncnc65)CC4)nc3)[C@H](OC)C2)C[C@@H](OC)[C@H](C)/C=C(\C)[C@@H](O)[C@@H](OC)C(=O)[C@H](C)C[C@H](C)/C=C/C=C/C=C/1C` [Example 90], the IC50 is less than 1 nM with P-P70S6K (T389), more than 1000 nM in the assay on P-Akt (S473) and more than 1000 nM in the assay on P-4E-BP1 (T37/46).

As for `CO[C@H]1C[C@@H]2CC[C@@H](C)[C@@](O)(O2)C(=O)C(=O)N2CCCC[C@H]2C(=O)O[C@H]([C@H](C)C[C@@H]2CC[C@@H](OC(=O)NCCOCCOCCOCCOCCOCCOCCOCCOCC(=O)N3CCc4cc(Cn5nc(-c6ccc7oc(N)nc7c6)c6c(N)ncnc65)ccc4C3)[C@H](OC)C2)C[C@@H](O)[C@H](C)/C=C(\C)[C@@H](O)[C@@H](OC)C(=O)[C@H](C)C[C@H](C)/C=C/C=C/C=C/1C` [Example 28], the IC50 was less than 1 nM in the assay with P-P70S6K (T389), more than 1000 nM with P-Akt (S473) and less than 3.16 nM with P-4E-BP1 (T37/46).

As to `CO[C@H]1C[C@@H]2CC[C@@H](C)[C@@](O)(O2)C(=O)C(=O)N2CCCC[C@H]2C(=O)O[C@H]([C@H](C)C[C@@H]2CC[C@@H](OC(=O)NCCOCCOCCOCCOCCOCCOCCOCCOCCC(=O)N3CCc4cc(Cn5nc(-c6ccc7oc(N)nc7c6)c6c(N)ncnc65)ccc4C3)[C@H](OC)C2)C[C@H](N=[N+]=[N-])[C@H](C)/C=C(\C)[C@@H](O)[C@@H](OC)C(=O)[C@H](C)C[C@H](C)/C=C/C=C/C=C/1C` [Example 30], the IC50 was less than 1 nM with P-P70S6K (T389), 3.16 to 31.6 nM in the assay on P-Akt (S473) and less than 3.16 nM in the assay with P-4E-BP1 (T37/46).

Take `CO[C@H]1C[C@@H]2CC[C@@H](C)[C@@](O)(O2)C(=O)C(=O)N2CCCC[C@H]2C(=O)O[C@H]([C@H](C)C[C@@H]2CC[C@@H](OC(=O)NCc3cnc(N4CCN(C(=O)CCOCCN5CCN(c6ncc(C(=O)NCCCCn7nc(-c8ccc9oc(N)nc9c8)c8c(N)ncnc87)cn6)CC5)CC4)nc3)[C@H](OC)C2)CC(=O)[C@H](C)/C=C(\C)[C@@H](O)[C@@H](OC)C(=O)[C@H](C)C[C@H](C)/C=C/C=C/C=C/1C` [Example 112]: the IC50 is less than 1 nM in the assay on P-P70S6K (T389), more than 1000 nM in the assay with P-Akt (S473) and more than 1000 nM in the assay with P-4E-BP1 (T37/46).

With `CO[C@H]1C[C@@H]2CC[C@@H](C)[C@@](O)(O2)C(=O)C(=O)N2CCCC[C@H]2C(=O)O[C@H]([C@H](C)C[C@@H]2CC[C@@H](OC(=O)NCc3cnc(N4CCN(c5ncc(C(=O)NCCOCCOCCOCCOCCC(=O)N6CCc7cc(Cn8nc(-c9cnc%10[nH]ccc%10c9)c9c(N)ncnc98)ccc7C6)cn5)CC4CO)nc3)[C@H](OC)C2)CC(=O)[C@H](C)/C=C(\C)[C@@H](O)[C@@H](OC)C(=O)[C@H](C)C[C@H](C)/C=C/C=C/C=C/1C` (stereo partly drawn) [Example 86], the IC50 with P-P70S6K (T389) is less than 1 nM; in the assay with P-Akt (S473), 3.16 to 31.6 nM; with P-4E-BP1 (T37/46), less than 3.16 nM.

With `CO[C@H]1C[C@@H]2CC[C@@H](C)[C@@](O)(O2)C(=O)C(=O)N2CCCC[C@H]2C(=O)O[C@H]([C@H](C)C[C@@H]2CC[C@@H](OC(=O)NCCOCCOCCOCCOCCOCCOCCOCCOCCC(=O)NCc3ccc(Cn4nc(-c5ccc6oc(N)nc6c5)c5c(N)ncnc54)cc3)[C@H](OC)C2)C[C@H](N=[N+]=[N-])[C@H](C)/C=C(\C)[C@@H](O)[C@@H](OC)C(=O)[C@H](C)C[C@H](C)/C=C/C=C/C=C/1C` [Example 82], the “pIC50 for Inhibition of mTORC1 and mTORC2 Substrate Phosphorylation p-P70S6K-(T389)” value in the assay on P-P70S6K (T389) is given as “+++ (≥9)”. In addition, the “pIC50 for Inhibition of mTORC1 and mTORC2 Substrate Phosphorylation p-AKT1/2/3-(S473)” value in the assay with P-Akt (S473) is on record as “− (<6)”. Besides, the “pIC50 for Inhibition of mTORC1 and mTORC2 Substrate Phosphorylation P-4E-BP1-(T37/46)” value with P-4E-BP1 (T37/46) is “+++ (≥8.5)”.

On to `CO[C@H]1C[C@@H]2CC[C@@H](C)[C@@](O)(O2)C(=O)C(=O)N2CCCC[C@H]2C(=O)O[C@H]([C@H](C)C[C@@H]2CC[C@@H](OC(=S)NCc3cnc(N4CCN(C(=O)CCOCCN5CCN(c6ncc(C(=O)N7CCc8cc(Cn9nc(-c%10ccc%11oc(N)nc%11c%10)c%10c(N)ncnc%109)ccc8C7)cn6)CC5)CC4)nc3)[C@H](OC)C2)C[C@@H](OC)[C@H](C)/C=C(\C)[C@@H](O)[C@@H](OC)C(=O)[C@H](C)C[C@H](C)/C=C/C=C/C=C/1C` [Example 121], for which the IC50 in the assay on P-P70S6K (T389) is less than 1 nM; with P-Akt (S473), more than 1000 nM; with P-4E-BP1 (T37/46), less than 3.16 nM.

Take `CO[C@H]1C[C@@H]2CC[C@@H](C)[C@@](O)(O2)C(=O)C(=O)N2CCCC[C@H]2C(=O)O[C@H]([C@H](C)C[C@@H]2CC[C@@H](O)[C@H](OC)C2)CC(=O)[C@H](C)/C=C(\C)[C@@H](OC(=O)NCc2cnc(N3CCN(C(=O)CCOCCN4CCN(c5ncc(C(=O)N6CCc7cc(Cn8nc(-c9ccc%10oc(N)nc%10c9)c9c(N)ncnc98)ccc7C6)cn5)CC4)CC3)nc2)[C@@H](OC)C(=O)[C@H](C)C[C@H](C)/C=C/C=C/C=C/1C` [Example 136]: the IC50 in the assay on P-P70S6K (T389) is less than 1 nM; with P-Akt (S473), 3.16 to 31.6 nM; with P-4E-BP1 (T37/46), 3.16 to 31.6 nM.

In the case of `CO[C@H]1C[C@@H]2CC[C@@H](C)[C@@](O)(O2)C(=O)C(=O)N2CCCC[C@H]2C(=O)O[C@H]([C@H](C)C[C@@H]2CC[C@@H](OC(=O)NCc3cnc(N4CCN(C(=O)CCOCCN5CCN(c6ncc(C(=O)N7CCc8cc(Cn9nc(-c%10ccc%11oc(N)nc%11c%10)c%10c(N)ncnc%109)ccc8C7)cn6)CC5)CC4)nc3)[C@H](OC)C2)C[C@@H](OC)[C@H](C)/C=C(\C)[C@@H](O)[C@@H](OC)C(=O)[C@H](C)C[C@H](C)/C=C/C=C/C=C/1C` [Example 114], the IC50 in the assay on P-P70S6K (T389) is less than 1 nM; in the assay on P-Akt (S473), more than 1000 nM; in the assay on P-4E-BP1 (T37/46) it was less than 3.16 nM.
